“Also recorded” adds a separate entry of the source. Where two headings read alike, the source gives them in different places.
How the values were obtained:
[1] = test system: EGFRvIII, ERK1/2 and S6RP phosphorylation; assay: Phosphorylation in CPEvIII neurosphere cultures (western blot); type: cell-based, mouse; details: CPEvIII neurospheres, 1 day, dose-dependent
Method: FIG. 5B is the western blot analysis of primary mouse CPEvIII cells that were treated with Compound 1 for 1 day.
Western blot analysis was performed as described previously (Ni, J., et al. (2012). Cancer discovery 2, 425-433; Ni, J., et al. (2016). Nature medicine 22, 723-726; Ni, J., et al. (2017). Neurooncology 19, 22-30). Anti-pEGFR-1068 (#3777), anti-pEGFR-1173 (#4407), anti-EGFR (#4267), anti-pERK1/2 (#9101), anti-ERK1/2 (#9102), anti-S6RP (#2211), and anti-S6RP (#2217) antibodies were purchased from Cell Signaling Technology. Anti-a-Tubulin antibody was purchased from Sigma.
Neural stem cells (NSCs) from E14.5 embryonic mice (Cdkn2a-null; Ptenf/f) striata were isolated and cultured as previously described (Rietze, R. L., and Reynolds, B. A. (2006). Methods in enzymology 419, 3-23). NSCs were infected twice with adenovirus expressing Cre recombinase (AdCre; MOI50) (University of Iowa) to knock out floxed Pten. Cells were then transduced with retrovirus expressing EGFRvIII (pBabe-puro-EGFRvIII) (from Dr. Charles Stiles, DFCI) and selected with 1 μg/ml puromycin. The resulting cells (Cdkn2anull; Ptennull; EGFRvIII, denominated CPEvIII) can form a glioma after grafted into the mouse brain. Tumors were then isolated and mechanically dissociated for expansion in vitro and in vivo. […]

[2] = Brain and plasma exposure after single oral dose; type: in vivo, Sprague Dawley rats; details: own data, oral dosing in rats
Text: Genfitinib concentrations were quantitated by LC-MS/MS from brain and plasma from Group 1 animals.

[3] = target: EGFR (Homo sapiens, UniProt P00533); assay: Kinase binding constant (Kd)
Chain of EGFR (P00533 25-1210): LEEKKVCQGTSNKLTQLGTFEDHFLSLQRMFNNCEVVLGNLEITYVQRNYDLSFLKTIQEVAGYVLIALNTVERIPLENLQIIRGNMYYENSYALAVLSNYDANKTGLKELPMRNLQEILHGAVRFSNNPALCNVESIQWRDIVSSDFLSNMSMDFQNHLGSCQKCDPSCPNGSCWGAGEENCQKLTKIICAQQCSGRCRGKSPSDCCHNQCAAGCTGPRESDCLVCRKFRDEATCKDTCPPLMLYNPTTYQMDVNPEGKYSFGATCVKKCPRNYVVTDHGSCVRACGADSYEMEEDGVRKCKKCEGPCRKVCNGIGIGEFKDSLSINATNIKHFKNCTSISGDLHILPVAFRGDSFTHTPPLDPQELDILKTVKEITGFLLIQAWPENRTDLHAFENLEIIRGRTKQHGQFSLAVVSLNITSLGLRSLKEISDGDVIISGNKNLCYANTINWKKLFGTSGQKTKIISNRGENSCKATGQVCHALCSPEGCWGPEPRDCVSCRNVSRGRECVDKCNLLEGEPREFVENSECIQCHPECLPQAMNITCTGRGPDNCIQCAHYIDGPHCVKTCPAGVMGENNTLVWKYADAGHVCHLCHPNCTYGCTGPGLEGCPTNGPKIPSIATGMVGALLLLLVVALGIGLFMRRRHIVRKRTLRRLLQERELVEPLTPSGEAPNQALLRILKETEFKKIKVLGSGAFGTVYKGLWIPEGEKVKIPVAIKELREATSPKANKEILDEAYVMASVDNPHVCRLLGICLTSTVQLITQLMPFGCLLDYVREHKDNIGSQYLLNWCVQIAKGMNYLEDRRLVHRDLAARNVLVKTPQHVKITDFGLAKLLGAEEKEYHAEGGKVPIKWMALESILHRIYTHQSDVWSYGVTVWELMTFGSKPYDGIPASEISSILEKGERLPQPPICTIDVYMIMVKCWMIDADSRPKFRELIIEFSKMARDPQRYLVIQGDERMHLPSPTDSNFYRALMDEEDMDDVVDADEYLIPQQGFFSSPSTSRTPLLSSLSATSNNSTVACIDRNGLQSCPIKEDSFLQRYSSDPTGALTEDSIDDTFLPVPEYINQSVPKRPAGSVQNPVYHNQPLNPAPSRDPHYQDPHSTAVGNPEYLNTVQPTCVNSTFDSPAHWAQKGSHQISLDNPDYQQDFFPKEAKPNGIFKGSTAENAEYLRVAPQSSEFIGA
Text: (§1) EGFR amplifications and/or mutations are common in GBM, estimated to occur in over 50% of patients.

[4] = target: EGFR(E746-A750del) (Homo sapiens, UniProt P00533, DEL746-750); assay: Kinase binding constant (Kd)
Chain of EGFR(E746-A750del) (P00533 with tags, fused parts or gaps DEL746-750): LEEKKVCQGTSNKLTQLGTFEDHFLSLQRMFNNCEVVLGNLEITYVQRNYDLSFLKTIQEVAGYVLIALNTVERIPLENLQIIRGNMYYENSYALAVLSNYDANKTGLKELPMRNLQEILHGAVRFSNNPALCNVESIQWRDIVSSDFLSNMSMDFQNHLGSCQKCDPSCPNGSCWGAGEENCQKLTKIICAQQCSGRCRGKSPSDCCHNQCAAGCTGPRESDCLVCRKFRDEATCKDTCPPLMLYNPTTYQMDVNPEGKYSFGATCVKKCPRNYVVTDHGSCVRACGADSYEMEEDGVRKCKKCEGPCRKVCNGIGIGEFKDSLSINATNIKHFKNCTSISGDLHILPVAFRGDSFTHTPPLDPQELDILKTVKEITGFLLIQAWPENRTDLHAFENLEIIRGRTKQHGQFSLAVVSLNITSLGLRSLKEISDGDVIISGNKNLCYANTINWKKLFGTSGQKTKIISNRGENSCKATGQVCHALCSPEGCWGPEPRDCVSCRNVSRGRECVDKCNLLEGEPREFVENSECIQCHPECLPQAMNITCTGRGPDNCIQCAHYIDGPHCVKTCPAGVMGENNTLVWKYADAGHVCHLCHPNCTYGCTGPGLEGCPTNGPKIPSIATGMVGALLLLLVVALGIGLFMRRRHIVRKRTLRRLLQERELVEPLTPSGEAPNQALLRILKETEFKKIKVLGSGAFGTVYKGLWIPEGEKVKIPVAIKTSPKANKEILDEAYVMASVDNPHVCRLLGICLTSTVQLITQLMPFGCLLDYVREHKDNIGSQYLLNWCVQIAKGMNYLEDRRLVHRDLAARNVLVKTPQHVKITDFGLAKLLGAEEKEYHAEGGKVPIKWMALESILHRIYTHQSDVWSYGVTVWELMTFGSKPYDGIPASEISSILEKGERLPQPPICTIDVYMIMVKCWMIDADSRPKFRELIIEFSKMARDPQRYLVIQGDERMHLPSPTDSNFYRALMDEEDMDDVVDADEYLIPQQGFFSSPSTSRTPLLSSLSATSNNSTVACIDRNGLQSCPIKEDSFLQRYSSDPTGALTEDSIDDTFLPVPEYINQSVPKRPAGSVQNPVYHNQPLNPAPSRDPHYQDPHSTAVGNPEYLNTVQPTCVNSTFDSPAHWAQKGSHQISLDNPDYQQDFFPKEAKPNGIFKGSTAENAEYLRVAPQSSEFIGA
Text: as §1

[5] = target: EGFR(G719C) (Homo sapiens, UniProt P00533, G719C); assay: Kinase binding constant (Kd)
Text: as §1

[6] = target: EGFR(G719S) (Homo sapiens, UniProt P00533, G719S); assay: Kinase binding constant (Kd)
Text: as §1

[7] = target: EGFR(L747-E749del, A750P) (Homo sapiens, UniProt P00533, A750P/DEL747-749); assay: Kinase binding constant (Kd)
Text: as §1

[8] = target: EGFR(L747-S752del, P753S) (Homo sapiens, UniProt P00533, DEL747-752/P753S); assay: Kinase binding constant (Kd)
Text: as §1

[9] = target: EGFR(L747-T751del,Sins) (Homo sapiens, UniProt P00533, DELINS747-751S); assay: Kinase binding constant (Kd)
Text: as §1

[10] = target: EGFR(L858R) (Homo sapiens, UniProt P00533, L858R); assay: Kinase binding constant (Kd)
Text: as §1

[11] = target: EGFR(L858R,T790M) (Homo sapiens, UniProt P00533, L858R/T790M); assay: Kinase binding constant (Kd)
Text: as §1

[12] = target: EGFR(L861Q) (Homo sapiens, UniProt P00533, L861Q); assay: Kinase binding constant (Kd)
Chain of EGFR(L861Q) (P00533 25-1210 L861Q): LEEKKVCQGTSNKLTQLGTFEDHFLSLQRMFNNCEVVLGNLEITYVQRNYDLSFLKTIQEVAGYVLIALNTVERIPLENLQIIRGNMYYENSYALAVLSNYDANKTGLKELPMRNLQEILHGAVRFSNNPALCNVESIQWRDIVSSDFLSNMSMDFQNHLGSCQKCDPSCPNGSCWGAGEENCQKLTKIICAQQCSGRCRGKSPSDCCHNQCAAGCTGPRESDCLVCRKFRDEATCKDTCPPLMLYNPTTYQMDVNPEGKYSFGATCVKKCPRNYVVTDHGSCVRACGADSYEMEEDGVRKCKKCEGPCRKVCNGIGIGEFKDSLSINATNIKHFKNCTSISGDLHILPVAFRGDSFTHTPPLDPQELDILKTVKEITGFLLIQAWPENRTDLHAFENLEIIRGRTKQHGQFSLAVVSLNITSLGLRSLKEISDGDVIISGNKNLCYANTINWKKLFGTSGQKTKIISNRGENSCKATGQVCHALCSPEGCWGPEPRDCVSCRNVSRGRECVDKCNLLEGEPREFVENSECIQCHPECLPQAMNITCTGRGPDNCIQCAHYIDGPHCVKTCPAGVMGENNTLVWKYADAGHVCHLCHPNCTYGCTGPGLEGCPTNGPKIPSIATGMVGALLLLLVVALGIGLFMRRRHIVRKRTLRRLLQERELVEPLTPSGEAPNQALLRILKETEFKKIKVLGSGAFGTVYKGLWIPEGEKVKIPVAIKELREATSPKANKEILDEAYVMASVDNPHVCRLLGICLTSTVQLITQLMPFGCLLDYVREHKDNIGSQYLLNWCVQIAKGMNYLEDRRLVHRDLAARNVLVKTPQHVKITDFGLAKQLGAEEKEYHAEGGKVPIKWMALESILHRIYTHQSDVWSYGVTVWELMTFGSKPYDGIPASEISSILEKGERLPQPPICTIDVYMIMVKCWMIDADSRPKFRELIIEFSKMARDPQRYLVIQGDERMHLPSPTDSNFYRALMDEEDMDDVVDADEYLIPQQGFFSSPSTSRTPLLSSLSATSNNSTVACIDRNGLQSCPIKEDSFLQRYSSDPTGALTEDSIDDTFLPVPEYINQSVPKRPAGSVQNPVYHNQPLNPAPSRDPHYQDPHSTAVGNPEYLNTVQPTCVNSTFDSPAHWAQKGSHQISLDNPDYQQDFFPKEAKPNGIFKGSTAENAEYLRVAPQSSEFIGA
Text: as §1

[13] = target: EGFR(S752-I759del) (Homo sapiens, UniProt P00533, DEL752-759); assay: Kinase binding constant (Kd)
Text: as §1

[14] = target: EGFR(T790M) (Homo sapiens, UniProt P00533, T790M); assay: Kinase binding constant (Kd)
Text: as §1

[15] = target: ERBB2 (Homo sapiens, UniProt P04626); assay: Kinase binding constant (Kd)
Text: as §1

[16] = target: ERBB4 (Homo sapiens, UniProt Q15303); assay: Kinase binding constant (Kd)
Text: as §1

[17] = test system: broad human receptor profile; assay: Receptor selectivity screen; type: binding; details: 10 μM free base
Method: Compound 1 and/or Compound 2 (active/major metabolite) were evaluated for off-target activity in a large panel of receptors and ion channels, including a human ether-i-go-go-related gene (hERG) assay. Compound 1 was assessed comprehensively in Good Laboratory Practice (GLP) safety pharmacology studies, including studies of cardiovascular, respiratory and central nervous system function.

[18] = target: T1, human BCRP (Homo sapiens, UniProt Q9UNQ0); assay: BCRP inhibition (rosuvastatin transport, Caco-2 cells); type: in vitro ADME; details: read-out: apparent IC50, rosuvastatin transport via human BCRP (converted)
T1 construct: endogenous in cells; host or cells: Caco-2 cells
T1 sequence (Q9UNQ0 whole entry): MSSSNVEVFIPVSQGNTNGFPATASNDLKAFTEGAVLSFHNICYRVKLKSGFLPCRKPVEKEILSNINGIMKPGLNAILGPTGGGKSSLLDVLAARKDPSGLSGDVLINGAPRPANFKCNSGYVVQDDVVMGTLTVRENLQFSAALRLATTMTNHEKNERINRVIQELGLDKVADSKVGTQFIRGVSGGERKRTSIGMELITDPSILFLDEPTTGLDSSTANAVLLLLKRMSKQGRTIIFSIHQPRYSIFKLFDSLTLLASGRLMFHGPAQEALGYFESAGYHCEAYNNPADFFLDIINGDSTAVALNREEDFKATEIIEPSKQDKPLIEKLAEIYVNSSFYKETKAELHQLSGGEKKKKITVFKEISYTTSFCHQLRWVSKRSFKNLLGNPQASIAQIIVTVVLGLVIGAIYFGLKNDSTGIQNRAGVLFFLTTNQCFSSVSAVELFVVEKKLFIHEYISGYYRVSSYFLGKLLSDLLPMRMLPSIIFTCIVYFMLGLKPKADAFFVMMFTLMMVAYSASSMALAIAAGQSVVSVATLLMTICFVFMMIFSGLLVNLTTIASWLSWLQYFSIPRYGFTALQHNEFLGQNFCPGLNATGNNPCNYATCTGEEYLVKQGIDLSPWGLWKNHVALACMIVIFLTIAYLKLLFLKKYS
Text: Further understanding of DDI risk will await definition of Phase 2 doses and exposures.

[19] = Plasma, brain and lung levels after 7 days oral dosing; type: in vivo, Sprague Dawley Rats; details: Sprague Dawley, rat, 24 hrs after last dosing
[20] = test system: H1975 cells (L858R/T790M); details: Wang 2020, read-out: IC50, growth inhibition; cited from earlier work

## C=CC(=O)Nc1cc(Nc2nccc(-n3ccc4cccnc43)n2)c(OC)cc1N(C)CCN(C)C [Compound 1, N-(5-((4-(1H-pyrrolo[2,3-b]pyridin-1-yl)pyrimidin-2-yl)amino)-2-((2-(dimethylamino)ethyl)(methyl)amino)-4-methoxyphenyl)acrylamide]
[1]
  phosphorylation of EGFRvIII, ERK1/2 and S6RP: markedly reduced phosphorylation; also recorded: Marked
[2]
  Brain Penetration (% of B/P ratio in preclinical model): 2830% (oral)
[3]
  activity against wild-type EGFR: little activity
[3]; EGFR wild type
  Kd: 4.9 nM
[4]
  Kd: 0.7 nM
[5]
  Kd: 2.2 nM
[6]
  Kd: 1.7 nM
[7]
  Kd: 0.97 nM
[8]
  Kd: 3.1 nM
[9]
  Kd: 2 nM
[10]
  Kd: 4.6 nM
[11]
  Kd: 0.11 nM
[12]
  Kd: 3.9 nM
[13]
  Kd: 2.9 nM
[14]
  Kd: 0.15 nM
[15]
  Kd: 11 nM
[16]
  Kd: 11 nM
[17]
  off-target risk from receptor binding studies: little off-target risk
[18]
  IC50: 3020 nM
[19]; brain, 10 mg/kg po qd 7 days, Female, read-out: Brain
  concentration at 24 h: 39.8 ng/g
[19]; brain, 10 mg/kg po qd 7 days, Male, read-out: Brain
  concentration at 24 h: 14.9 ng/g
[19]; brain, 50 mg/kg po qd 7 days, Female, read-out: Brain
  concentration at 24 h: 3770 ng/g
[19]; brain, 50 mg/kg po qd 7 days, Male, read-out: Brain
  concentration at 24 h: 2080 ng/g
[19]; lung, 10 mg/kg po qd 7 days, Female, read-out: Lung
  concentration at 24 h: 1220 ng/g
[19]; lung, 10 mg/kg po qd 7 days, Male, read-out: Lung
  concentration at 24 h: 329 ng/g
[19]; lung, 50 mg/kg po qd 7 days, Female, read-out: Lung
  concentration at 24 h: 45000 ng/g
[19]; lung, 50 mg/kg po qd 7 days, Male, read-out: Lung
  concentration at 24 h: 9710 ng/g
[19]; plasma, 10 mg/kg po qd 7 days, Female, read-out: Plasma
  concentration at 24 h: 20.8 ng/mL
[19]; plasma, 10 mg/kg po qd 7 days, Male, read-out: Plasma
  concentration at 24 h: 10.6 ng/mL
[19]; plasma, 50 mg/kg po qd 7 days, Female, read-out: Plasma
  concentration at 24 h: 244 ng/mL
[19]; plasma, 50 mg/kg po qd 7 days, Male, read-out: Plasma
  concentration at 24 h: 149 ng/mL
[20]
  IC50: 4.39 nM
